These results are taken from patent publication US9403830B2, “Inhibitors of leukotriene production” (Boehringer Ingelheim International GmbH, priority 2012, dated 2016).

One assay deals with T1, human LTA4 hydrolase (Homo sapiens, UniProt P09960).
T1 sequence (P09960 1-611): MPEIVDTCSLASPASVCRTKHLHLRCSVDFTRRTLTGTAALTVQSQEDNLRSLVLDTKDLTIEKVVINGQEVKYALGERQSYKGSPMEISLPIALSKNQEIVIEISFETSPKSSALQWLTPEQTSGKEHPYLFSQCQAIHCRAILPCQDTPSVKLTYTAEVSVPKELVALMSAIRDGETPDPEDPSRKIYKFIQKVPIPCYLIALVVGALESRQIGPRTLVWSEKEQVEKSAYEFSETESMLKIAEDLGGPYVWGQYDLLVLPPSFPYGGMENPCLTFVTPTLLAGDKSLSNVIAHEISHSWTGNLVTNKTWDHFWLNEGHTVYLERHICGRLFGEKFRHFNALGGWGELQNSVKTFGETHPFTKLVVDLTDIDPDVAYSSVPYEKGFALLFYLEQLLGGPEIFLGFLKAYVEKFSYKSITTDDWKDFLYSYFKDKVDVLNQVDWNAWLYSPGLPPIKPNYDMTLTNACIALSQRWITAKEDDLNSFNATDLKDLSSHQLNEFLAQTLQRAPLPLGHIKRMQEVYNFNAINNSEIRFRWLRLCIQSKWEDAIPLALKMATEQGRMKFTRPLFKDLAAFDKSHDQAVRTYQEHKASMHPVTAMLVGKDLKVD
The assay is described as follows: LTA4H Enzyme assay (peptidase, Arg-AMC cleavage). Format: biochemical. As to conditions: LTA4H enzyme 1 nM, Arg-AMC substrate 50 μM, room temperature 1 h, fluorescence 380/460 nm. In outline:
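Human LTA4H (1 nM final) incubated with compound and Arg-AMC (50 μM final) in 50 mM Tris-HCl pH 7.5, 100 mM KCl, 0.5% BSA, 1 h at room temperature. Product read as AMC fluorescence (ex 380/em 460 nm); IC50 reported.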

Assay [1] relates to LTB4 synthesis in human whole blood. Put plainly: human whole blood (HWB) assay, inhibition of LTB4 production. The class given is cell-based. To be noted: heparinized human whole blood, calcimycin 20 μM stimulation, plasma LTB4. In outline: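 Plasma LTB4, quantified by HTRF immunoassay, is the read-out after calcimycin challenge (20 μM final, 30 min, 37 °C) of heparinized whole blood that had been pretreated with compound for 15 min at 37 °C; values given as IC50.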

Broadly, the IC50 is the concentration at which inhibition is half-maximal.

On to `c1cc(-c2ccc(Oc3ccc4nn(CCCN5CCOCC5)cc4c3)cc2)[nH]n1` [Example 84, 2-(3-Morpholin-4-yl-propyl)-5-[4-(2H-pyrazol-3-yl)-phenoxy]-2H-indazole], for which the IC50 at human LTA4 hydrolase was 0.36 nM; in assay [1] it was 120 nM.

As for `CN(Cc1nc2cc(Oc3ccc(-c4ccn[nH]4)cc3)ccc2[nH]1)CC1CCCO1` (stereo not drawn) [Example 85, Methyl-{5-[4-(2H-pyrazol-3-yl)-phenoxy]-1H-benzoimidazol-2-ylmethyl}-(tetrahydro-furan-2-ylmethyl)-amine], the concentration for half-maximal inhibition (IC50) on human LTA4 hydrolase was 0.24 nM; in assay [1], 120 nM.

As to `CCN(Cc1nc2cc(Oc3ccc(-c4ccn[nH]4)cc3)ccc2[nH]1)[C@@H](C)COC` [Example 86, Ethyl-((S)-2-methoxy-1-methyl-ethyl)-{5-[4-(2H-pyrazol-3-yl)-phenoxy]-1H-benzoimidazol-2-ylmethyl}-amine], the figures for the IC50 (on human LTA4 hydrolase; in assay [1]) were 0.056 nM and 120 nM, respectively.

As to `CN(Cc1nc2cc(Oc3ccc(-c4ccn[nH]4)cc3)ccc2[nH]1)CC1COCCO1` (stereo not drawn) [Example 87, [1,4]Dioxan-2-ylmethyl-methyl-{5-[4-(2H-pyrazol-3-yl)-phenoxy]-1H-benzoimidazol-2-ylmethyl}-amine], the half-maximal inhibitory concentration (IC50) was determined as 0.36 nM on human LTA4 hydrolase and 120 nM in assay [1].

As for `CN1CCC[C@H]1Cc1nc2cc(Oc3ccc(-c4ccn[nH]4)cc3)ccc2[nH]1` [Example 89, 2-((S)-1-Methyl-pyrrolidin-2-ylmethyl)-5-[4-(2H-pyrazol-3-yl)-phenoxy]-1H-benzoimidazole], the IC50 against human LTA4 hydrolase is 0.086 nM; in assay [1] it was 130 nM.

Take `CC(=O)N1CCN(CCn2ncc3cc(Oc4ccc(-c5ccn[nH]5)cc4)ccc32)CC1` [Example 90, 1-[4-(2-{5-[4-(2H-Pyrazol-3-yl)-phenoxy]-indazol-1-yl}-ethyl)-piperazin-1-yl]-ethanone]: the IC50 against human LTA4 hydrolase is 0.45 nM; in assay [1], 130 nM.

`COCCNCc1nc2cc(Oc3ccc(-c4ccn[nH]4)cc3)ccc2[nH]1` [Example 91, (2-Methoxy-ethyl)-{5-[4-(2H-pyrazol-3-yl)-phenoxy]-1H-benzoimidazol-2-ylmethyl}-amine]: the IC50 against human LTA4 hydrolase amounted to 0.21 nM; in assay [1] it was 140 nM.

`CN(Cc1nc2cc(Oc3ccc(-c4ccn[nH]4)cc3)ccc2[nH]1)CC1CCCOC1` (stereo not drawn) [Example 92, Methyl-{5-[4-(2H-pyrazol-3-yl)-phenoxy]-1H-benzoimidazol-2-ylmethyl}-(tetrahydro-pyran-3-ylmethyl)-amine]: the results for the half-maximal inhibitory concentration (IC50) (against human LTA4 hydrolase; in assay [1]) were 0.11 nM and 140 nM, respectively.

Turning to `CC(=O)N1CCN(CCn2cc3cc(Oc4ccc(-c5ccn[nH]5)cc4)ccc3n2)CC1` [Example 93, 1-[4-(2-{5-[4-(2H-Pyrazol-3-yl)-phenoxy]-indazol-2-yl}-ethyl)-piperazin-1-yl]-ethanone], the IC50 on human LTA4 hydrolase worked out at 0.58 nM; in assay [1], 150 nM.

For the molecule `CC(=O)N1CCN(CCn2ncc3cc(Oc4ccc(-c5ccn[nH]5)cn4)ccc32)CC1` [Example 94, 1-[4-(2-{5-[5-(2H-Pyrazol-3-yl)-pyridin-2-yloxy]-indazol-1-yl}-ethyl)-piperazin-1-yl]-ethanone], the 50% inhibitory concentration (IC50) on human LTA4 hydrolase stood at 1.3 nM; in assay [1], 150 nM.

For `CC(=O)N1CCN(CCCn2cc3cc(Oc4ccc(-c5ccn[nH]5)cc4)ccc3n2)CC1` [Example 95, 1-[4-(3-{5-[4-(2H-Pyrazol-3-yl)-phenoxy]-indazol-2-yl}-propyl)-piperazin-1-yl]-ethanone], the IC50 on human LTA4 hydrolase is 0.83 nM; in assay [1], 150 nM.

Regarding `N#CCC1CCN(Cc2ccc3cc(Oc4ccc(-c5ccn[nH]5)cn4)ccc3n2)CC1` [Example 96, (1-{6-[5-(2H-Pyrazol-3-yl)-pyridin-2-yloxy]-quinolin-2-ylmethyl}-piperidin-4-yl)-acetonitrile], the values for the IC50 (against human LTA4 hydrolase; in assay [1]) were 0.79 nM and 160 nM, respectively.

For the molecule `c1cc(-c2ccc(Oc3ccc4[nH]c(CNCC5CCCO5)nc4c3)cc2)[nH]n1` (stereo not drawn) [Example 97, {5-[4-(2H-Pyrazol-3-yl)-phenoxy]-1H-benzoimidazol-2-ylmethyl}-(tetrahydro-furan-2-ylmethyl)-amine], the half-maximal inhibitory concentration (IC50) at human LTA4 hydrolase was found to be 0.54 nM; in assay [1], 160 nM.

In the case of `c1cc(-c2ccc(Oc3ccc4[nH]c(CN5CCSCC5)nc4c3)cc2)[nH]n1` [Example 98, 5-[4-(2H-Pyrazol-3-yl)-phenoxy]-2-thiomorpholin-4-ylmethyl-1H-benzoimidazole], the half-maximal inhibitory concentration (IC50) stood at 0.18 nM against human LTA4 hydrolase and 160 nM in assay [1].

Turning to `N#CC1CCN(Cc2ccc3cc(Oc4ccc(-c5ccn[nH]5)cn4)ccc3n2)CC1` [Example 99, 1-{6-[5-(2H-pyrazol-3-yl)-pyridin-2-yloxy]-quinolin-2-ylmethyl}-piperidine-4-carbonitrile], the 50% inhibitory concentration (IC50) on human LTA4 hydrolase was found to be 0.93 nM; in assay [1], 170 nM.

Regarding `c1cc(-c2ccc(Oc3ccc4[nH]c(CNC[C@@H]5CCCO5)nc4c3)cc2)[nH]n1` [Example 100, {5-[4-(2H-Pyrazol-3-yl)-phenoxy]-1H-benzoimidazol-2-ylmethyl}-[(S)-1-(tetrahydro-furan-2-yl)methyl]-amine], the IC50 against human LTA4 hydrolase was determined as 0.42 nM; in assay [1], 170 nM.

For `c1cc(-c2ccc(Oc3ccc4[nH]c(CNC[C@H]5CCCO5)nc4c3)cc2)[nH]n1` [Example 101, {5-[4-(2H-Pyrazol-3-yl)-phenoxy]-1H-benzoimidazol-2-ylmethyl}-[(R)-1-(tetrahydro-furan-2-yl)methyl]-amine], the concentration for half-maximal inhibition (IC50) is 0.55 nM against human LTA4 hydrolase and 190 nM in assay [1].

As for `c1cc(-c2ccc(Oc3ccc4c(cnn4CCN4CCOCC4)c3)cc2)[nH]n1` [Example 102, 1-(2-Morpholin-4-yl-ethyl)-5-[4-(2H-pyrazol-3-yl)-phenoxy]-1H-indazole], the results for the half-inhibitory concentration (IC50) (on human LTA4 hydrolase; in assay [1]) were 0.91 nM and 190 nM, respectively.

In the case of `CC[C@H](C)N(Cc1nc2cc(Oc3ccc(-c4ccn[nH]4)cc3)ccc2[nH]1)C(C)=O` [Example 103, N—((S)-sec-butyl)-N-{5-[4-(2H-pyrazol-3-yl)-phenoxy]-1H-benzoimidazol-2-ylmethyl}-acetamide], the IC50 against human LTA4 hydrolase worked out at 0.27 nM; in assay [1], 190 nM.

Regarding `CN(Cc1nc2cc(Oc3ccc(-c4ccn[nH]4)cc3)ccc2[nH]1)CC1CCOC1` (stereo not drawn) [Example 104, Methyl-{5-[4-(2H-pyrazol-3-yl)-phenoxy]-1H-benzoimidazol-2-ylmethyl}-(tetrahydro-furan-3-ylmethyl)-amine], the half-inhibitory concentration (IC50) amounted to 0.27 nM on human LTA4 hydrolase and 190 nM in assay [1].

As for `c1cc(-c2ccc(Oc3ccc4nn(CCCN5CCCC5)cc4c3)cc2)[nH]n1` [Example 105, 5-[4-(2H-Pyrazol-3-yl)-phenoxy]-2-(3-pyrrolidin-1-yl-propyl)-2H-indazole], the values for the IC50 (at human LTA4 hydrolase; in assay [1]) were 0.53 nM and 200 nM, respectively.

With `c1cc(-c2ccc(Oc3ccc4[nH]c(CNCC5CCOCC5)nc4c3)cc2)[nH]n1` [Example 106, {5-[4-(2H-Pyrazol-3-yl)-phenoxy]-1H-benzoimidazol-2-ylmethyl}-(tetrahydro-pyran-4-ylmethyl)-amine], the values for the IC50 (against human LTA4 hydrolase; in assay [1]) were 0.17 nM and 200 nM, respectively.

Consider `N#C[C@@H]1CCN(Cc2ccc3cc(Oc4ccc(-c5ccn[nH]5)cn4)ccc3n2)C1` [Example 107, (R)-1-{6-[5-(2H-Pyrazol-3-yl)-pyridin-2-yloxy]-quinolin-2-ylmethyl}-pyrrolidine-3-carbonitrile], for which the values for the IC50 (at human LTA4 hydrolase; in assay [1]) were 2 nM and 220 nM, respectively.

Consider `CC(=O)N1CCN(CCc2ccc3cc(Oc4ccc(-c5ccn[nH]5)cn4)ccc3n2)CC1` [Example 108, 1-[4-(2-{6-[5-(2H-pyrazol-3-yl)-pyridin-2-yloxy]-quinolin-2-yl}-ethyl)-piperazin-1-yl]-ethanone], for which the values for the IC50 (against human LTA4 hydrolase; in assay [1]) were 0.54 nM and 230 nM, respectively.

Take `CC(=O)NC1CCN(CCCn2ncc3cc(Oc4ccc(-c5ccn[nH]5)cc4)ccc32)CC1` [Example 109, N-[1-(3-{5-[4-(2H-Pyrazol-3-yl)-phenoxy]-indazol-1-yl}-propyl)-piperidin-4-yl]-acetamide]: the IC50 was 0.47 nM at human LTA4 hydrolase and 230 nM in assay [1].

Take `CC(=O)N1CCC(N(C)Cc2ccc3cc(Oc4ccc(-c5ccn[nH]5)cn4)ccc3n2)CC1` [Example 110, 1-[4-(Methyl-{6-[5-(2H-pyrazol-3-yl)-pyridin-2-yloxy]-quinolin-2-ylmethyl}-amino)-piperidin-1-yl]-ethanone]: the concentration for half-maximal inhibition (IC50) came to 0.7 nM against human LTA4 hydrolase and 240 nM in assay [1].

In the case of `c1cc(-c2ccc(Oc3ccc4c(cnn4CCN4CCOCC4)c3)nc2)[nH]n1` [Example 111, 1-(2-Morpholin-4-yl-ethyl)-5-[5-(2H-pyrazol-3-yl)-pyridin-2-yloxy]-1H-indazole], the concentration for half-maximal inhibition (IC50) was 2 nM at human LTA4 hydrolase and 280 nM in assay [1].
